From US9796674B2, “Benzyl urea derivatives for activating TGF-beta signaling” (THE BOARD OF TRUSTEES OF THE LELAND STANFORD JUNIOR …, priority 2013, dated 2017)
“Also recorded” adds a separate entry of the source. Read-outs that look alike come from different tables or passages of the source.

Tests used:
[1] = tested on: mouse J774A.1 macrophages; assay: Fibrillar Aβ clearance by J774A.1 macrophages; assay type: cell-based; conditions: 24 h, 2, 5, or 10 μM
Description: SRI-011381 promotes Aβ clearance in cell culture: TGF-β1 promotes Aβ clearance in a microglia cell line. To test whether SRI-011381 has similar properties, mouse J774A.1 macrophages and human macrophages differentiated from THP-1 monocytic cell lines were treated with fibrillar Aβ in the absence or presence of compound (2, 5, or 10 μM) for 24 h. Conditioned medium was harvested and the remaining Aβ that was not phagocytosed by macrophages was quantified by Aβ ELISA.
FIGS. 4A and 4B present data from experiments in which human macrophages differentiated from THP-1 monocytic cell lines and mouse J774A.1 macrophages were incubated with fibrillar Aβ in the absence or presence of compound (2 or 5 μM) for 24 h. Conditioned medium was harvested and the remaining Aβ was quantified by Aβ ELISA. The collected medium (FIGS. 4C-4D) was added to N2A-APP-Swe cells (mouse Neuro-2A neuroblastoma cells stably expressing Swedish APP695) and incubated for 24 h. Neurotoxicity was quantified by an MTS Assay.
Mouse J774A.1 macrophages and human macrophages that were differentiated from THP-1 monocytic cell lines were treated with fibrillar Aβ42 in the absence or presence of SRI-011382 or its derivative compounds (2, 5, or 10 μM) for 24 h. Conditioned medium was harvested and the remaining Aβ42 that was not phagocytosed by macrophages was quantified by Aβ42 ELISA kit (Invitrogen). […]

FvB wildtype mice = assay type: in vivo
Description: Excitotoxic injury model: Mice are injured with kainic acid and treated with different test compounds at two concentrations each to determine if they can reduce neurodegeneration and/or microglial activation. Wildtype mice on the FVB/N genetic background (8-weeks-old) are typically injured with kainic acid (Tocris, Ellisville, Mo.) dissolved in PBS and injected subcutaneously (s.q., 20 mg/kg). Seizure activity is scored from 0 to 5, with 0 corresponding to no behavioral changes and 5 corresponding to constant rearing and falling. Only kainate-injected mice reaching at least stage 3 are used for the studies. On day 5 following injury, mice are anesthetized, transcardially perfused with 0.9% saline, and brains harvested and dissected. One hemi-brain may be fixed for 24 hours in 4% paraformaldehyde and cryoprotected in 30% sucrose. Serial coronal sections (40 μm) can be cut with a freezing microtome (Leica, Allendale, N.J.) and stored in cryoprotective medium. One set of sections, representing different levels of the hippocampus, is used for the various stains. The other hemi-brain is dissected into hippocampus, cortex, thalamus, brain stem, and cerebellum. In this manner, the ability of test compounds to reduce neurodegeneration in kainate-injected mice can be assayed.
SRI-011381 is neuroprotective in a model of acute neurodegeneration: To study the potential neuroprotective effect of SRI-011381 in vivo, FvB wildtype mice were pre-treated with compound or vehicle for 3 days before excitotoxic injury was induced with kainic acid (10 mg/kg, SQ). Mice continued to receive daily injections of compound until they were sacrificed at day 5 after kainic acid injury. Brains were removed, fixed with paraformaldehyde, sectioned into […] sections using a cryomicrotome and stained with cresyl violet, or immunohistochemical methods. Sections for analysis of synaptophysin, MAP2, and NeuN were subjected to blinded confocal quantitative analysis of neurodegeneration.
To study the potential neuroprotective effect of SRI-011381, FvB wild-type mice were pre-treated with compound or vehicle for 3 days before excitotoxic injury was induced with kainic acid (10 mg/kg). Mice continued to receive daily injections of compound until they were sacrificed at day 5 after kainic acid injury. Kainic acid treatment alone caused a roughly 50% lethality in this experiment (lethality greatly varies in this model and is very difficult to control, but survivors from experiments with greater than 25% lethality typically show significant neurodegeneration in the hippocampus).
Brains were removed, fixed with paraformaldehyde, sectioned into […] sections using a cryomicrotome and stained with cresyl violet, or immunohistochemical methods. Sections were analyzed for synaptophysin, MAP2, and NeuN by confocal quantitative analysis of neurodegeneration. All observers were completely blinded to the treatment conditions of the mice.

[2] = one third of maximum tolerated dose

## O=C(NC1CCCCC1)N(Cc1ccccc1)CC1CCNCC1 [SRI-011381, 1-Benzyl-3-cyclohexyl-1-(piperidin-4-ylmethyl)urea]
[1]
  fibrillar Aβ clearance: promoted fibrillar Aβ clearance; also recorded: promoted fibrillar Aβ42 clearance
[1]; listed as SRI-11381
  fibrillar Aβ clearance: promote fibrillar Aβ42 clearance
FvB wildtype mice; 10 mg/kg daily
  lethality after kainic acid: significant reduction in lethality
FvB wildtype mice; kainic acid 10 mg/kg, day 5
  calbindin loss reduced: 30%
  neuronal damage reversed or prevented, all neuronal markers: at least 30%
  reduction of CD68 expression: more than 20%
FvB wildtype mice; mouse, in vivo, 60 mg/kg
  lethality after kainic acid: increase in lethality
FvB wildtype mice; [2]
  pathology reduced: Cresyl violet: 54.0%
  pathology reduced: D68: 22.5%
  pathology reduced: MAP-2: 37.4%
  pathology reduced: NeuN: 36.9%
  pathology reduced: Synaptophysin: 67.5%
FvB wildtype mice; systemic administration
  neurodegeneration (percentage of rescue): reduces neurodegeneration by 6 markers
